Measured values: paper PMC11532494 (Nature Communications, 2024)
“And” between values parts separate entries of the source, which are not always exact repeats. Identical values can stand only once. Like-named read-outs stand apart in the source and are kept apart here. No end group written: not given here. *: point of attachment. AMC = Cc1cc(=O)oc2cc(N*)ccc12

Assays:
VsHdaH (1b) = type: biochemical, Vibrio sp.; details: VKDAC
RsPrpH (1b) = assay: Substrate screening assay (acyl-peptide-AMC); type: biochemical, Rhizorhabdus sp.; details: RsPrpH (1b); for [AMC]: Transform RFU in [AMC]
RwDmhA (1b) = RwDmhA (1b) (Rhizorhabdus wittichii, UniProt A0A067XIQ6); type: biochemical; details: RwDmhA (1b)
KpHdaH (1b) = KpHdaH (1b) (Klebsiella pneumoniae, UniProt A0A377Z5F6); type: biochemical; details: KpHdaH (1b)
BsAcuC (2c) = biological target: T1, BsAcuC (2c) (Bacillus subtilis, UniProt P39067); assay: Substrate screening assay (acyl-peptide-AMC); type: biochemical; details: BsAcuC (2c); for [AMC]: Transform RFU in [AMC]
T1 construct: made in house; host or cells: E. coli BL21 (DE3)
T1 sequence (P39067 1-387): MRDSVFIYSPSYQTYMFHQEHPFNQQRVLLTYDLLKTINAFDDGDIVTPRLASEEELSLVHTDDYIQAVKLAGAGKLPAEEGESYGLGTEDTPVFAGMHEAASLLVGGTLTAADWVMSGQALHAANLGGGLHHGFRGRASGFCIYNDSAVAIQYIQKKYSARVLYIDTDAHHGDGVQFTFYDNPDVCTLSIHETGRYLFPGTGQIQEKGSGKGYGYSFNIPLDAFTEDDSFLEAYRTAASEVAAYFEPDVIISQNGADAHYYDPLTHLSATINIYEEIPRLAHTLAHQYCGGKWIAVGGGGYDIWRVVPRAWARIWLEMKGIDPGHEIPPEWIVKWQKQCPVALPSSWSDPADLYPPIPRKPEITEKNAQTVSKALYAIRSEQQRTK
Description: (§1) Experiments with SIRT2 and SIRT5 were supplemented with NAD^+ (500 µM). Thereafter, a solution of trypsin (25 µL, 5.0 mg/mL; final concentration of 2.5 mg/mL) was added, and the development of the assay was allowed to proceed for 90 min at room temperature before fluorescence analysis. […] To this end, a single category is given to all conversions >48% on the heatmap. […] For the H4-derived peptide LGKbio no positive control was available.

VcHdaH (5b) = type: biochemical, Vibrio cholerae; details: VcHdaH (5b); for [AMC]: Transform RFU in [AMC]
PsApaH (4) = PsApaH (4) (Pseudomonas sp. M30-35, UniProt A0A1Y0KY79); type: biochemical; details: PsApaH (4)
Description: as §1

Controls = assay: Substrate screening assay (acyl-peptide-AMC), control enzymes; type: biochemical

Substance	Relative Fluorescene Units (RFU) (VsHdaH (1b); Transform RFU*2, Sample 1)	Relative Fluorescene Units (RFU) (VsHdaH (1b); Transform RFU*2, Sample 2)	Relative Fluorescene Units (RFU) (VsHdaH (1b); Sample 1)	Relative Fluorescene Units (RFU) (VsHdaH (1b); Sample 2)	Relative Fluorescene Units (RFU) (KpHdaH (1b); Sample 1)	Relative Fluorescene Units (RFU) (KpHdaH (1b); Sample 2)	Relative Fluorescene Units (RFU) (KpHdaH (1b); Transform RFU*2, Sample 1)	Relative Fluorescene Units (RFU) (KpHdaH (1b); Transform RFU*2, Sample 2)	Relative Fluorescene Units (RFU) (BsAcuC (2c); Sample 1)	Relative Fluorescene Units (RFU) (BsAcuC (2c); Sample 2)	[AMC] (BsAcuC (2c); Sample 1)	[AMC] (BsAcuC (2c); Sample 2)	Relative Fluorescene Units (RFU) (BsAcuC (2c); Transform RFU*2, Sample 1)	Relative Fluorescene Units (RFU) (BsAcuC (2c); Transform RFU*2, Sample 2)	[AMC] (VcHdaH (5b); Sample 1)	[AMC] (VcHdaH (5b); Sample 2)	Relative Fluorescene Units (RFU) (VcHdaH (5b); Transform RFU*2, Sample 1)	Relative Fluorescene Units (RFU) (VcHdaH (5b); Transform RFU*2, Sample 2)	Relative Fluorescene Units (RFU) (VcHdaH (5b); Sample 1)	Relative Fluorescene Units (RFU) (VcHdaH (5b); Sample 2)	other results
QPKKoct (QPKK-{AMC}; not fully specified (residue 4); printed as QPKKoct; also: octanoyl-lysine (which Lys not given here); UniProt P04637 317-320, looked up, fragment)	248 RFU	194 RFU	124 RFU	97 RFU	-13 RFU	-43 RFU	-26 RFU	-86 RFU	2401 RFU	1622 RFU	2344.73 nM	1583.98 nM	4802 RFU	3244 RFU	67.38 nM	71.29 nM	138 RFU	146 RFU	69 RFU	73 RFU	Relative Fluorescene Units (RFU) (RsPrpH (1b); Sample 1): 4 RFU; Relative Fluorescene Units (RFU) (RsPrpH (1b); Sample 2): 72 RFU; [AMC] (RsPrpH (1b); Sample 1): 3.91 nM; [AMC] (RsPrpH (1b); Sample 2): 70.31 nM; Relative Fluorescene Units (RFU) (RsPrpH (1b); Transform RFU*2, Sample 1): 8 RFU; Relative Fluorescene Units (RFU) (RsPrpH (1b); Transform RFU*2, Sample 2): 144 RFU; Relative Fluorescene Units (RFU) (RwDmhA (1b); Sample 1): 53 RFU; Relative Fluorescene Units (RFU) (RwDmhA (1b); Sample 2): 75 RFU; Relative Fluorescene Units (RFU) (RwDmhA (1b); Transform RFU*2, Sample 1): 106 RFU; Relative Fluorescene Units (RFU) (RwDmhA (1b); Transform RFU*2, Sample 2): 150 RFU; Relative Fluorescene Units (RFU) (PsApaH (4); Sample 1): 88 RFU; Relative Fluorescene Units (RFU) (PsApaH (4); Sample 2): 73 RFU; Relative Fluorescene Units (RFU) (PsApaH (4); Transform RFU*2, Sample 1): 176 RFU; Relative Fluorescene Units (RFU) (Controls): 6579 RFU and 10102 RFU; [AMC] (Controls; Transform RFU in [AMC], Controls, Sample 1): 6.4248 µM; [AMC] (Controls; Transform RFU in [AMC], Controls, Sample 2): 9.86523 µM; Relative Fluorescene Units (RFU) (Controls; Transform RFU*2, Controls, Sample 1): 13158 RFU; Relative Fluorescene Units (RFU) (Controls; Transform RFU*2, Controls, Sample 2): 20204 RFU
QPKKpal (QPKK-{AMC}; not fully specified (residue 4); printed as QPKKpal; also: palmitoyl-lysine (which Lys not given here); UniProt P04637 317-320, looked up, fragment)	82 RFU	-38 RFU	41 RFU	-19 RFU	9 RFU	-4 RFU	18 RFU	-8 RFU	139 RFU	15 RFU	135.74 nM	14.65 nM	278 RFU	30 RFU	22.46 nM	-39.06 nM	46 RFU	-80 RFU	23 RFU	-40 RFU	Relative Fluorescene Units (RFU) (PsApaH (4); Sample 1): 40 RFU; Relative Fluorescene Units (RFU) (PsApaH (4); Sample 2): 14 RFU; Relative Fluorescene Units (RFU) (PsApaH (4); Transform RFU*2, Sample 1): 80 RFU; Relative Fluorescene Units (RFU) (PsApaH (4); Transform RFU*2, Sample 2): 28 RFU; [AMC] (Controls): 8.07129 µM and 10.51367 µM
